Patent US20260345527A1 (priority 2022, published 2026)
Read-outs that look alike come from different tables or passages of the source.

Tests used:
[1] = tested on: MAP1LC3A
[2] = tested on: TDP-25; assay: intracellular localization of TDP-25 in SH-SY5Y cells transfected with GFP-TDP-25 (fluorescence microscopy)
Text: (§1) In FIG. 4, blue fluorescence indicates the nucleus with DAPI, and green fluorescence indicates TDP-25 with GFP.
(§2) To construct an aggregation model of TDP-43 protein in the SH-SY5Y cells, which are human neuroblastoma cell lines, a GFP-TDP-25 plasmid was transfected into cells, and it may be confirmed that the transfected GFP-TPD-25 (GFP: green fluorescent protein) is present in the cytoplasm.

[3] = tested on: TFEB
[4] = tested on: SQSTM1/p62
[5] = tested on: TDP-43; assay: TDP-43 aggregation in cytoplasm by immunofluorescence staining and fluorescence microscopy in H2O2-treated SH-SY5Y cells
[6] = tested on: TDP-43 protein; assay: inhibition of TDP-43 protein aggregation in SH-SY5Y cells (summary statements)
[7] = tested on: HSPB8 (Heat Shock Protein Family B (Small) Member 8); conditions: sh-sy5y cells, 24 h
[8] = tested on: TDP-43; assay: TDP-43 aggregation (TDP-43 aggregation kit) in H2O2-treated SH-SY5Y cells
[9] = tested on: HSPB8; assay: protein expression of chaperone HSPB8 in SH-SY5Y cells
[10] = tested on: ALS; conditions: approved ALS therapeutics, background; cited from earlier work
[11] = tested on: insoluble TDP-43; assay: expression of insoluble TDP-43 in GFP-TDP-25 TDP-43 aggregation model of SH-SY5Y cells; conditions: GFP-TDP-25 transfected cells; metformin (5 mM), colchicine (1000 nM) alone or in combination; FIG. 4 B and C
Text: as §1, §2

In the case of COc1cc2c(c(OC)c1OC)-c1ccc(OC)c(=O)cc1[C@@H](NC(C)=O)CC2 [colchicine], the “increase of MAP1LC3A mRNA expression” value ([1]; sh-sy5y cells, 24 h) is reported as 2-3 times, the “effect on TDP-25 accumulation in the cytoplasm” value [2] is reported as “did not affect” and the “increase of TFEB mRNA expression” value ([3]; sh-sy5y cells, 24 h) is reported as 2-3 times. For the same compound, the “increase of SQSTM1/p62 mRNA expression” value ([4]; sh-sy5y cells, 24 h) was 2-3 times, the “effect on TDP-43 aggregation in the cytoplasm” value [5] was “did not inhibit” and the “reduction/inhibition of TDP-43 aggregation (summary)” value [6] was “hardly reduced”. The “increase in HSPB8 mRNA expression” value [7] was “approximately 2 fold”, the “effect on hydrogen peroxide-induced TDP-43 aggregation” value [8] was “slight effect” and the “change in HSPB8 protein expression” value [9] was “inadequate change”.

With OO [hydrogen peroxide (H2O2), hydrogen peroxide] the “induction of TDP-43 aggregation in the cytoplasm” value ([5]; 1 mM hydrogen peroxide, 1 hour, FIG. 3 A and B) was “significantly induced TDP-43 aggregation in the cytoplasm” and the “induction of abnormal aggregation of TDP-43” value ([8]; 1 mM hydrogen peroxide, 1 hour, FIG. 2) was “significantly induced abnormal aggregation of TDP-43”.

For CC1=NN(c2ccccc2)C(=O)C1 [Edaravone], the “effect on life expectancy or disease progression in ALS patients” value [10] is listed as “help extend life expectancy in patients by several months or delay the progression of the disease at an early stage” and the “therapeutic effect in ALS” value [10] is listed as “only a symptom-relieving effect”.

In the case of CN(C)C(=N)N=C(N)N [metformin], the “MAP1LC3A mRNA expression” value ([1]; metformin alone, 0.1-5 mM, 24 hours, FIG. 7) is reported as “no effect”, the “effect on TDP-25 accumulation in the cytoplasm” value ([2]; GFP-TDP-25 transfected cells, drugs alone or in combination, FIG. 4 A) is reported as “did not affect” and the “TFEB mRNA expression” value ([3]; metformin alone, 0.1-5 mM, 24 hours, FIG. 5) is reported as “no effect”. For the same compound, the “SQSTM1/p62 mRNA expression” value ([4]; metformin alone, 0.1-5 mM, 24 hours, FIG. 6) was “no effect”, the “effect on TDP-43 aggregation in the cytoplasm” value ([5]; hydrogen peroxide-treated cells, drugs alone or in combination, FIG. 3 A and B) was “did not inhibit” and the “reduction/inhibition of TDP-43 aggregation (summary)” value ([6]; colchicine alone, metformin alone, or in combination) was “hardly reduced”. The “effect on expression of insoluble TDP-43” value [11] was “slightly reduced”, the “effect on hydrogen peroxide-induced TDP-43 aggregation” value ([8]; 24 h drug, then 1 mM H2O2 for 1 hour, metformin 0.1-5 mM, colchicine 1-1000 nM, alone or in combination, FIG. 2) was “did not have a significant effect” and the “change in HSPB8 protein expression” value ([9]; metformin (5 mM) alone or colchicine (1000 nM) alone, FIG. 1 D) was “inadequate change”.

For Nc1nc2ccc(OC(F)(F)F)cc2s1 [Riluzole], the “effect on life expectancy or disease progression in ALS patients” value [10] is listed as “help extend life expectancy in patients by several months or delay the progression of the disease at an early stage” and the “therapeutic effect in ALS” value [10] is listed as “only a symptom-relieving effect”.
